According to patent US6525001B1, “Substituted pyrimidine and pyridine herbicides” (Mid-American Commercialization Corporation, priority 1997, dated 2003):

How the values were obtained:
Assay in all cases: Test B pre-/postemergence
Format in all cases: in vivo
Design in all cases: key: 0 is no effect; 10 is complete control
[1] = system: blackgrass (Alopecurus myosuroides)
In short: (§1)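 Response scores run from 0, meaning no effect, to 10, meaning complete control, assigned by eye relative to controls twelve to sixteen days after spraying. Treatment was both preemergence on planted seed and postemergence on plants at the 1- to 4-leaf stage.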

[2] = system: crabgrass (Digitaria sanguinalis)
In short: as §1

[3] = system: purple nutsedge (Cyperus rotundus)
In short: as §1

soybean (Glycine max) = system: soybean (Glycine max)
In short: as §1

wild oat (Avena fatua) = system: wild oat (Avena fatua)
In short: as §1

[4] = Preemergence, Rate 62 g/ha, scale of 0 to 10

`Cc1cnc(-n2ccc(C(F)(F)F)n2)nc1C(=O)c1cccc(C(F)(F)F)c1` [Compound 59] was tested, and the “Plant response rating, Blackgrass” value [1, 4] was 2, the “Blackgrass plant response rating” value ([1]; Rate 62 g/ha, Postemergence) was 2 and the “Blackgrass plant response rating” value ([1]; Rate 125 g/ha, Postemergence) was 3. The “Plant response rating, Blackgrass” value ([1]; Rate 125 g/ha, Preemergence) was 3, the “Plant response rating, Blackgrass” value ([1]; Rate 250 g/ha, Postemergence) was 5 and the “Plant response rating, Blackgrass” value ([1]; Rate 250 g/ha, Preemergence) was 7. For the same molecule, the “Plant response rating, Blackgrass” value ([1]; Rate 500 g/ha, Postemergence) was 6, the “Plant response rating, Blackgrass” value ([1]; Rate 500 g/ha, Preemergence) was 9 and the “Plant response rating, Crabgrass” value [2, 4] was 8. For the same molecule, the “Crabgrass plant response rating” value ([2]; Rate 62 g/ha, Postemergence) was 6, the “Crabgrass plant response rating” value ([2]; Rate 125 g/ha, Postemergence) was 6 and the “Plant response rating, Crabgrass” value ([2]; Rate 125 g/ha, Preemergence) was 9. For the same molecule, the “Plant response rating, Crabgrass” value ([2]; Rate 250 g/ha, Postemergence) was 8, the “Plant response rating, Crabgrass” value ([2]; Rate 250 g/ha, Preemergence) was 10 and the “Plant response rating, Crabgrass” value ([2]; Rate 500 g/ha, Postemergence) was 9. The “Plant response rating, Crabgrass” value ([2]; Rate 500 g/ha, Preemergence) was 10, the “Plant response rating, Nutsedge” value [3, 4] was 0 and the “Nutsedge plant response rating” value ([3]; Rate 62 g/ha, Postemergence) was 0. For the same molecule, the “Nutsedge plant response rating” value ([3]; Rate 125 g/ha, Postemergence) was 0, the “Plant response rating, Nutsedge” value ([3]; Rate 125 g/ha, Preemergence) was 0 and the “Plant response rating, Nutsedge” value ([3]; Rate 250 g/ha, Postemergence) was 0. For the same molecule, the “Plant response rating, Nutsedge” value ([3]; Rate 250 g/ha, Preemergence) was 0, the “Plant response rating, Nutsedge” value ([3]; Rate 500 g/ha, Postemergence) was 0 and the “Plant response rating, Nutsedge” value ([3]; Rate 500 g/ha, Preemergence) was 0. For the same molecule, the “Plant response rating, Soybean” value (soybean (Glycine max); [4]) was 1, the “Soybean plant response rating” value (soybean (Glycine max); Rate 62 g/ha, Postemergence) was 6 and the “Soybean plant response rating” value (soybean (Glycine max); Rate 125 g/ha, Postemergence) was 7. The “Plant response rating, Soybean” value (soybean (Glycine max); Rate 125 g/ha, Preemergence) was 2, the “Plant response rating, Soybean” value (soybean (Glycine max); Rate 250 g/ha, Postemergence) was 8 and the “Plant response rating, Soybean” value (soybean (Glycine max); Rate 250 g/ha, Preemergence) was 2. The “Plant response rating, Soybean” value (soybean (Glycine max); Rate 500 g/ha, Postemergence) was 9, the “Plant response rating, Soybean” value (soybean (Glycine max); Rate 500 g/ha, Preemergence) was 4 and the “Plant response rating, Wild oats” value (wild oat (Avena fatua); [4]) was 7. For the same molecule, the “Wild oats plant response rating” value (wild oat (Avena fatua); Rate 62 g/ha, Postemergence) was 1, the “Wild oats plant response rating” value (wild oat (Avena fatua); Rate 125 g/ha, Postemergence) was 1 and the “Plant response rating, Wild oats” value (wild oat (Avena fatua); Rate 125 g/ha, Preemergence) was 8. For the same molecule, the “Plant response rating, Wild oats” value (wild oat (Avena fatua); Rate 250 g/ha, Postemergence) was 3, the “Plant response rating, Wild oats” value (wild oat (Avena fatua); Rate 250 g/ha, Preemergence) was 9 and the “Plant response rating, Wild oats” value (wild oat (Avena fatua); Rate 500 g/ha, Postemergence) was 6. For the same molecule, the “Plant response rating, Wild oats” value (wild oat (Avena fatua); Rate 500 g/ha, Preemergence) was 9.

`CCc1cnc(-c2ccc(C(F)(F)F)cc2)nc1Cc1cccc(C(F)(F)F)c1` [Compound 22] was tested, and the “Plant response rating, Blackgrass” value ([1]; Rate 62 g/ha, Postemergence) was 5, the “Blackgrass plant response rating” value ([1]; Rate 62 g/ha, Preemergence) was 8 and the “Plant response rating, Blackgrass” value ([1]; Rate 125 g/ha, Postemergence) was 8. The “Blackgrass plant response rating” value ([1]; Rate 125 g/ha, Preemergence) was 9, the “Plant response rating, Blackgrass” value ([1]; Rate 250 g/ha, Postemergence) was 9 and the “Plant response rating, Blackgrass” value ([1]; Rate 250 g/ha, Preemergence) was 9. For the same molecule, the “Plant response rating, Crabgrass” value ([2]; Rate 62 g/ha, Postemergence) was 9, the “Crabgrass plant response rating” value ([2]; Rate 62 g/ha, Preemergence) was 7 and the “Plant response rating, Crabgrass” value ([2]; Rate 125 g/ha, Postemergence) was 9. For the same molecule, the “Crabgrass plant response rating” value ([2]; Rate 125 g/ha, Preemergence) was 10, the “Plant response rating, Crabgrass” value ([2]; Rate 250 g/ha, Postemergence) was 9 and the “Plant response rating, Crabgrass” value ([2]; Rate 250 g/ha, Preemergence) was 10. The “Plant response rating, Nutsedge” value ([3]; Rate 62 g/ha, Postemergence) was 0, the “Nutsedge plant response rating” value ([3]; Rate 62 g/ha, Preemergence) was 0 and the “Plant response rating, Nutsedge” value ([3]; Rate 125 g/ha, Postemergence) was 0. The “Nutsedge plant response rating” value ([3]; Rate 125 g/ha, Preemergence) was 1, the “Plant response rating, Soybean” value (soybean (Glycine max); Rate 62 g/ha, Postemergence) was 6 and the “Soybean plant response rating” value (soybean (Glycine max); Rate 62 g/ha, Preemergence) was 1. The “Plant response rating, Soybean” value (soybean (Glycine max); Rate 125 g/ha, Postemergence) was 7, the “Soybean plant response rating” value (soybean (Glycine max); Rate 125 g/ha, Preemergence) was 1 and the “Plant response rating, Soybean” value (soybean (Glycine max); Rate 250 g/ha, Postemergence) was 8. The “Plant response rating, Soybean” value (soybean (Glycine max); Rate 250 g/ha, Preemergence) was 2, the “Plant response rating, Wild oats” value (wild oat (Avena fatua); Rate 62 g/ha, Postemergence) was 5 and the “Wild oats plant response rating” value (wild oat (Avena fatua); Rate 62 g/ha, Preemergence) was 7. For the same molecule, the “Plant response rating, Wild oats” value (wild oat (Avena fatua); Rate 125 g/ha, Postemergence) was 6, the “Wild oats plant response rating” value (wild oat (Avena fatua); Rate 125 g/ha, Preemergence) was 8 and the “Plant response rating, Wild oats” value (wild oat (Avena fatua); Rate 250 g/ha, Postemergence) was 8. The “Plant response rating, Wild oats” value (wild oat (Avena fatua); Rate 250 g/ha, Preemergence) was 9.

With `Cc1cnc(-n2cnc(C(F)(F)F)c2)nc1C(=O)c1cccc(OC(F)(F)F)c1` [Compound 63] the “Plant response rating, Blackgrass” value [1, 4] was 2, the “Blackgrass plant response rating” value ([1]; Rate 62 g/ha, Postemergence) was 2 and the “Blackgrass plant response rating” value ([1]; Rate 125 g/ha, Postemergence) was 3. For the same molecule, the “Plant response rating, Blackgrass” value ([1]; Rate 125 g/ha, Preemergence) was 3, the “Plant response rating, Blackgrass” value ([1]; Rate 250 g/ha, Postemergence) was 3 and the “Plant response rating, Blackgrass” value ([1]; Rate 250 g/ha, Preemergence) was 8. The “Plant response rating, Blackgrass” value ([1]; Rate 500 g/ha, Postemergence) was 6, the “Plant response rating, Blackgrass” value ([1]; Rate 500 g/ha, Preemergence) was 9 and the “Plant response rating, Crabgrass” value [2, 4] was 3. The “Crabgrass plant response rating” value ([2]; Rate 62 g/ha, Postemergence) was 3, the “Crabgrass plant response rating” value ([2]; Rate 125 g/ha, Postemergence) was 3 and the “Plant response rating, Crabgrass” value ([2]; Rate 125 g/ha, Preemergence) was 6. For the same molecule, the “Plant response rating, Crabgrass” value ([2]; Rate 250 g/ha, Postemergence) was 4, the “Plant response rating, Crabgrass” value ([2]; Rate 250 g/ha, Preemergence) was 8 and the “Plant response rating, Crabgrass” value ([2]; Rate 500 g/ha, Postemergence) was 6. For the same molecule, the “Plant response rating, Crabgrass” value ([2]; Rate 500 g/ha, Preemergence) was 9, the “Plant response rating, Nutsedge” value [3, 4] was 0 and the “Nutsedge plant response rating” value ([3]; Rate 62 g/ha, Postemergence) was 0. The “Plant response rating, Nutsedge” value ([3]; Rate 125 g/ha, Preemergence) was 0, the “Plant response rating, Nutsedge” value ([3]; Rate 250 g/ha, Postemergence) was 0 and the “Plant response rating, Nutsedge” value ([3]; Rate 500 g/ha, Preemergence) was 0. The “Plant response rating, Soybean” value (soybean (Glycine max); [4]) was 0, the “Soybean plant response rating” value (soybean (Glycine max); Rate 62 g/ha, Postemergence) was 0 and the “Soybean plant response rating” value (soybean (Glycine max); Rate 125 g/ha, Postemergence) was 2. The “Plant response rating, Soybean” value (soybean (Glycine max); Rate 125 g/ha, Preemergence) was 0, the “Plant response rating, Soybean” value (soybean (Glycine max); Rate 250 g/ha, Postemergence) was 2 and the “Plant response rating, Soybean” value (soybean (Glycine max); Rate 250 g/ha, Preemergence) was 0. The “Plant response rating, Soybean” value (soybean (Glycine max); Rate 500 g/ha, Postemergence) was 2, the “Plant response rating, Soybean” value (soybean (Glycine max); Rate 500 g/ha, Preemergence) was 0 and the “Plant response rating, Wild oats” value (wild oat (Avena fatua); [4]) was 3. The “Wild oats plant response rating” value (wild oat (Avena fatua); Rate 62 g/ha, Postemergence) was 3, the “Wild oats plant response rating” value (wild oat (Avena fatua); Rate 125 g/ha, Postemergence) was 2 and the “Plant response rating, Wild oats” value (wild oat (Avena fatua); Rate 125 g/ha, Preemergence) was 3. For the same molecule, the “Plant response rating, Wild oats” value (wild oat (Avena fatua); Rate 250 g/ha, Postemergence) was 2, the “Plant response rating, Wild oats” value (wild oat (Avena fatua); Rate 250 g/ha, Preemergence) was 5 and the “Plant response rating, Wild oats” value (wild oat (Avena fatua); Rate 500 g/ha, Postemergence) was 2. The “Plant response rating, Wild oats” value (wild oat (Avena fatua); Rate 500 g/ha, Preemergence) was 8.
